In this test the test system is C. auris. Put plainly: microbe, parasite or virus in culture. In kind it is cell-based, Candida auris. The note with it: Candidozyma auris; Etest; read-out: fluconazole MIC in absence of azoffluxin. How it is done: FIGS. 2A-2E illustrate the above-described screening of the BU-CMD which identified azoffluxin as a fluconazole (FLC) potentiator against C. auris. […] Growth, as determined by optical density at 600 nm (OD600), is plotted in the presence of each CMD compound alone on the y-axis and in combination with FLC on the x-axis. Dotted lines represent 7-median absolute deviations from the median for each condition. […] FIG. 2B depicts the synergistic interactions. […] Growth was measured by the OD600 and normalized to the no drug control (see color bar). The fractional inhibitory concentration index (FICI) was calculated to determine the chemical interaction, with a value below 0.5 indicating synergy. […] FIG. 2D depicts FLC Etest strips in the presence and absence of 50 μM azoffluxin. A total of 1×10^6 C. auris cells were added to YPD agar plates, the E-test strip was added, and plates were incubated at 30° C. for 24 hours prior to imaging. FIG. 2. […] Dose-response assay where a two-fold dilution of azoffluxin was titered starting from 50 μM. Indicated titrations have a background concentration of FLC of 32 μg/mL, 4 μg/mL, 0.25 μg/mL, and 0.5 μg/mL for C. auris Ci6684 (Erg11Y132F), C. albicans (SN95), C. glabrata (BG2) or S. cerevisiae (BY4741), respectively. […] Dose response assays were incubated for 48 hours at 30° C. in RPMI. Growth in each well was plotted by the relative optical density to the respective no drug control (See color bar in FIG. 2B).
Compound potency was assessed alone by dose response assays or in combination with another compound by dose-response matrixes in 96-well plates, or 384-well, flat-bottom, microtiter plates (Corning) as previously described. Plates were incubated at 30° C. for the indicated time period. Growth was quantified by measuring OD600 and corrected for medium background. All strains were assessed in biological duplicate experiments with technical duplicates. […] For dose-response matrixes fractional inhibitory concentration index at 90% growth inhibition (FICI90) was calculated as previously described. […]

As for `OC(Cn1cncn1)(Cn1cncn1)c1ccc(F)cc1F` [fluconazole, reference compound], the MIC was over 256 µg/mL.

The record behind these values is US11773086B2, “Fungal modulators” (TRUSTEES OF BOSTON UNIVERSITY, priority 2020, dated 2023).
